From patent US20100179220A1, “METHOD FOR THE TREATMENT OF TINNITUS” (Merck Patent GmbH, priority 2006, published 2010)
Several values for one entry are separate records, joined by “and”; a condition that tells them apart may be missing. Identical values can stand only once.

Assays:
[1] = tested on: patients with sensorineural tinnitus; experiment: randomized double-blind placebo-controlled clinical trial of acamprosate in tinnitus; assay type: in vivo, human; design: key to tinnitus scale, Mean / tinnitus scale, Median / tinnitus scale, Minimum / tinnitus scale, Maximum: tinnitus disturbance score, 0 to 10 (0.5 steps allowed)
Experimental: We selected 50 patients with tinnitus seen at OTOSUL, Otorrinolaringologia Sul-fluminense, Hospital São Camilo, Volta Redonda, R J, between October 2003 and October 2004. The inclusion criteria were tinnitus of sensorineural etiology, excluding the cases of external and middle ear disease and concomitant temporomandibular joint disorders. Pure tone audiometry, vocal audiometry and immittanciometry were performed in all patients, and we excluded those with conductive and mixed hearing loss and those with tympanogram curve types A-r, A-d, C and B. The audiometer used was AMPLAID A 177 PLUS, and the Immittanciometer was AMPLAID 750. We considered the thresholds up to 25 dB (normal hearing), 26 to 40 dB (mild loss), 41 to 70 dB (moderate loss), 71 to 90 dB (severe loss) and over 90 dB (profound loss).
The patients were classified according to the following parameters:
age, gender, continuous or intermittent tinnitus, uni or bilateral tinnitus, tinnitus characteristics (type of associated noise), time of tinnitus, associated symptoms (hypo and hyper loss, dizziness, ear fullness), probable tinnitus etiology, previous use of drugs to treat tinnitus, and baseline tinnitus score, given by the patient, ranging from 0 to 10, according to how much it disturbed the patient
Patients were asked to score tinnitus from 1 to 10 according to how much they were disturbed by it. We allowed 0.5 scores as well.
Patients were randomly divided into 2 groups of 25 patients: one group received acamprosate 333 mg, TID, and the other received placebo, TID, both groups for 90 days. All details of the study were clarified to the patients by the assistant physician and they all signed the informed consent term. It was a double-blind study approved by the Medical Ethical Committee, Hospital São Camilo.
Patients were analyzed at days 30, 60 and 90 after use of the drug and at each visit, the patient scored the tinnitus status, as well as reported side effects.
The statistical analysis was performed based on the following methods:
t Student test for independent samples or the Mann-Whitney test to compare quantitative data between the two groups (acamprosate and placebo) chi-square test or Fisher exact test to compare qualitative data, Friedman Variance Analysis to analyze the progression of tinnitus scale (quantitative data) throughout time (four assessments within 3 months) with the treatment with acamprosate and placebo.
The test of multiple comparisons based on the statistics of Friedman was applied to identify which moments were different. The test of multiple comparisons is a test complementary to Variance Analysis.
The criterion for determination of significance was adopted as 5%, that is, when p value of the statistical test was smaller or equal to 0.05, meaning there was statistical significance. The statistical analysis was processed by the statistical software SAS System.

[2] = tested on: GABA reuptake sites; details: rats; cited from earlier work
[3] = tested on: patients with tinnitus; details: cited from earlier work; for improvement of tinnitus: literature studies, only baclofen and caroverine double blind placebo-controlled
[4] = acamprosate 333 mg TID, 90 days, n=23

With CC(=O)NCCCS(=O)(=O)O [acamprosate, calcium acetyl-homotaurinate] the “tinnitus scale, Maximum” value ([1]; Baseline, n=23) was 10, the “tinnitus scale, Mean” value ([1]; Baseline, n=23) was 6.74 and the “tinnitus scale, Median” value ([1]; Baseline, n=23) was 7. The “tinnitus scale, Minimum” value ([1]; Baseline, n=23) was 3, the “tinnitus scale, Maximum” value ([1]; Score 30 d, 333 mg TID, n=23) was 10 and the “tinnitus scale, Mean” value ([1]; Score 30 d, 333 mg TID, n=23) was 5.39. For the same compound, the “tinnitus scale, Median” value ([1]; Score 30 d, 333 mg TID, n=23) was 5, the “tinnitus scale, Minimum” value ([1]; Score 30 d, 333 mg TID, n=23) was 2 and the “tinnitus scale, Maximum” value ([1]; Score 60 d, 333 mg TID, n=23) was 9. For the same compound, the “tinnitus scale, Mean” value ([1]; Score 60 d, 333 mg TID, n=23) was 3.98, the “tinnitus scale, Median” value ([1]; Score 60 d, 333 mg TID, n=23) was 4 and the “tinnitus scale, Minimum” value ([1]; Score 60 d, 333 mg TID, n=23) was 0. For the same compound, the “tinnitus scale, Maximum” value ([1]; Score 90 d, 333 mg TID, n=23) was 10, the “tinnitus scale, Mean” value ([1]; Score 90 d, 333 mg TID, n=23) was 2.87 and the “tinnitus scale, Median” value ([1]; Score 90 d, 333 mg TID, n=23) was 2. The “tinnitus scale, Minimum” value ([1]; Score 90 d, 333 mg TID, n=23) was 0, the worsening in score ([1]; acamprosate 333 mg TID, 90 days) was “no worsening in score has been observed” and the “severity of observed side effects” value ([1]; acamprosate 333 mg TID, 90 days, epigastralgia, choking) was “mild”. The “patients who did not report improvement” value [1, 4] was 13.04%, the “patients who reported improvement below 50%” value [1, 4] was 39.13% and the “subjects who reported that tinnitus had disappeared” value [1, 4] was 13.04%. The “incidence of side effects” value ([1]; acamprosate 333 mg TID, 90 days, placebo 20%, p=0.35) was 12%, the “proportion of improvement at 90 days equal or greater than 50%” value ([1]; acamprosate 333 mg TID, 90 days, subjective tinnitus score, placebo 11.1%, p=0.012) was 47.8% and 47.83% and the “patients who interrupted treatment before the end of assessment” value ([1]; acamprosate group of 25, placebo 7) was 2. For the same compound, the “patients who suspended treatment owing to side effects” value ([1]; acamprosate group, 50% of those who interrupted) was “One”, the “variation of tinnitus scale as a result of time (Friedman Variance Analysis)” value ([1]; baseline, 30, 60, 90 days, 333 mg TID, p<0.0001) was “significant decrease” and the “effect on GABA reuptake sites and GABA transmission” value [2] was “increases the number of reuptake sites of GABA”.

For NCC(CC(=O)O)c1ccc(Cl)cc1 (stereo not drawn) [baclofen], the improvement of tinnitus [3] is listed as “about 9.7%”.

In the case of NC(=O)N1c2ccccc2C=Cc2ccccc21 [carbamazepine], the “improvement, % of the cases of tinnitus” value ([3]; progressively increasing doses of 50 to 600 mg a day, defined by positive lidocaine test) is listed as 50%.

For CCN(CC)CCn1c(=O)c(Cc2ccc(OC)cc2)nc2ccccc21 [caroverine], the improvement of tinnitus [3] is listed as 63.3%.

In the case of O=C1CN=C(c2ccccc2Cl)c2cc([N+](=O)[O-])ccc2N1 [clonazepam], the improvement of tinnitus [3] is listed as 32%.

In the case of c1cnc(N2CCN(Cc3ccc4c(c3)OCO4)CC2)nc1 [piribedil], the improvement of tinnitus [3] is given as 92.6%.

For COc1ccc(CN2CCNCC2)c(OC)c1OC [trimetazidine], the improvement of tinnitus [3] is listed as 89%.
